Measurements as given in patent US10351589B2, “3α-ethynyl, 3β-hydroxy-5α-pregnan-20-oxime for use in the treatment of CNS disorders” (Umecrine Cognition AB, priority 2015, dated 2019).

Legend:
Assay type in all cases: cell-based
[1] = target: T1, α5β3γ2L GABAA receptor (Homo sapiens, UniProt P18507+P28472+P31644); assay: Example 3: comparative patch clamp test of compound and epimer, change in chloride flow through α5β3γ2L GABAA receptor; details: for action on the GABA receptor subunit alpha 5: summary of Table 4
T1 construct: expressed in transfected cells; host or cells: HEK-293 (permanently transfected)
Text: (§1) HEK-293 cells, permanently transfected with the human α1β2γ2 GABAA and α5β3γ2 GABAA receptor expressing functional α1β2γ2L and α5β3γ2L GABAA receptors were used. The cell lines permanently expressing a functional human GABAA receptor was made in following steps. The GABAA receptor subunits α1(308-1727 NM_000806), β2 (214-1679 NM_000813), and γ2L (290-1785 NM_198904) including introduced Kozac sequences just before the start codons were subcloned into mammalian expression vectors containing Geneticin, Hygromycin B, and Zeocin resistance, respectively. A HEK-293 cell line stably expressing the three GABAA receptor subunits was produced by transfection of the subunits one at a time. The transfection was followed by selection with the appropriate antibiotics, cell separation with the use of subunit specific antibodies (β2 and γ2), and production of single cell colonies. Produced cell lines were analysed with immunocytochemistry for the three GABAA receptor subunits, followed by selection of a suitable cell line showing for the GABAA receptor normal and good reactivity in a patch-clamp analysis (see below) towards GABA and the GAMS tetrahydrodeoxycorticosterone (THDOC).
(§2) Experiments were carried out to investigate the effect of 3α-ethynyl, 3β-hydroxy, 5α-pregnan-20-oxime on the GABAA receptor function in absence and in presence of the GAMS Tetrahydrodeoxycorticosterone (THDOC) by the Dynaflow™ system on HEK-293 cells. In these tests the protocol was optimized to be similar to the physiological conditions in the synaptic cleft.
(§3) Cell culture: HEK-293 cells, permanently transfected with human α1β2γ2 GABAA and α5β3γ2 GABAA receptor subtypes, were seeded at a density of 3×10^4/25 cm^2 in cellbind culture flask. The transfected cells were used for patch-clamp experiments 3 days after seeding. When using the cells for patch-clamp experiments the cells were washed twice with O2 bubbled EC-solution (see below). About 5 mL EC was then added and the cells were kept in the incubator for about 15 minutes. After 15 minutes the cells come loose from the bottom of the flask and were separated by carefully sucking couple of times with a Pasteur pipette.
(§4) Dynaflow™ system: Dynaflow™ system with resolve chips was used for all patch-clamp experiments. The resolve chips is made of non-sticky materials. The channel width is 150 μm and the height 50 μm. The well volume is 280 μL. Run time at the flow rate of […]. is […]. The pump settings were as follow: Omnifix 2 mL syringe with inner diameter of 9.65 mm was used. The syringe pump flow rate of chip was 26 μL/min.
Electrophysiology: Patch electrodes were pulled from 1.5 mm O.D., 0.86 mm I.D. borosilicate capillary glass without filament. […] The intracellular solution consisted of (in mM): 140 Cs-gluconate, 3.0 NaCl, 1.2 MgCl2, 1.0 EGTA, 10 HEPES. pH was adjusted to 7.2 with CsOH. The extracellular (EC) solution used during recordings contained (in mM): 137 NaCl, 5.0 KCl, 1.0 CaCl2, 1.2 MgCl2, 10 HEPES, 10 glucose. pH was adjusted with NaOH to 7.4. After compensating for the liquid junction potential a steady holding potential of −17 mV was used in all experiments. In physiological conditions the HEK-293 has a resting potential at −40 mV and a low concentration of chloride ions inside the cell. By using the holding potential of −17 mV and the intracellular solution with low chloride ion concentration the chloride ions flux into the cell when the receptors are activated. All experiments were performed at room temperature (21 to 23° C.). A standard protocol was used for all experiments.
GABA applications: By using the Dynaflow equipment it is possible to study transfected HEK-293 during almost physiological conditions. The Dynaflow system allows application of solutions for as short as 40 ms up to minutes in time. Physiologically, in the synaptic cleft, GABA is released in mM range for about 2 ms this is valid for alpha1 receptors. […]

[2] = target: T1, α5β3γ2L GABAA receptor; assay: Patch clamp (Dynaflow) current response mediated by chloride ion flux, α5β3γ2L GABAA receptor in HEK-293 cells; details: for Relative effect Mean (%) / Relative effect Median: 200 nM THDOC + 0.3 μM GABA, control set to 0
Text: as §1, §2, §3, §4
(§5) Steroids and GABA: GABA was dissolved in EC-solution by ultrasound for about 40 minutes to the concentration of 10 mM in room temperature. All steroids were dissolved to the concentration of 6 mM in ethanol. The ethanol concentration was 0.1% in all end-solutions, including the wash solution (EC) and the solution with GABA alone. End-solutions are the solutions added into the wells of the chip.
(§6) Electrophysiology: Patch electrodes were pulled from 1.5 mm O.D., 0.86 mm I.D. borosilicate capillary glass without filament. […] The intracellular solution consisted of (in mM): 140 Cs-gluconate, 3.0 NaCl, 1.2 MgCl2, 1.0 EGTA, 10 HEPES. pH was adjusted to 7.2 with CsOH. The extracellular (EC) solution used during recordings contained (in mM): 137 NaCl, 5.0 KCl, 1.0 CaCl2, 1.2 MgCl2, 10 HEPES, 10 glucose. pH was adjusted with NaOH to 7.4. After compensating for the liquid junction potential a steady holding potential of −17 mV was used in all experiments. In physiological conditions the HEK-293 has a resting potential at −40 mV and a low concentration of chloride ions inside the cell. By using the holding potential of −17 mV and the intracellular solution with low chloride ion concentration the chloride ions flux into the cell when the receptors are activated. All experiments were performed at room temperature (21 to 23° C.). A standard protocol was used for all experiments. […]

[3] = target: T2, human α1β2γ2L GABAA receptor (Homo sapiens, UniProt P14867+P18507+P47870); assay: Patch clamp (Dynaflow) current response mediated by chloride ion flux, α1β2γ2L GABAA receptor in HEK-293 cells
T2 construct: expressed in transfected cells
Text: as §1, §2, §3, §4, §5, §6

T1 sequence (P31644 32-462): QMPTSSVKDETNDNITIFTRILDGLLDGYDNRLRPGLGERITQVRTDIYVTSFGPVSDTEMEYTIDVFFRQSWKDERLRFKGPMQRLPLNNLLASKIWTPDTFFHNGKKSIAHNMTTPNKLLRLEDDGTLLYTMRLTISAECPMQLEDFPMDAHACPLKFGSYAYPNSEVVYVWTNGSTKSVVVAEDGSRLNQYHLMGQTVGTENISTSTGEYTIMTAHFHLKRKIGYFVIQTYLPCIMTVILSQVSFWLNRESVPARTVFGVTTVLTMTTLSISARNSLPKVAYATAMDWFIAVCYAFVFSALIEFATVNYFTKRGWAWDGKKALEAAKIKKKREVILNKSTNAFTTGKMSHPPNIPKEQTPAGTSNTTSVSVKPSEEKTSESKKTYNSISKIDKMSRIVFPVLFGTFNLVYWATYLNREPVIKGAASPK
T1 sequence (P28472 26-473): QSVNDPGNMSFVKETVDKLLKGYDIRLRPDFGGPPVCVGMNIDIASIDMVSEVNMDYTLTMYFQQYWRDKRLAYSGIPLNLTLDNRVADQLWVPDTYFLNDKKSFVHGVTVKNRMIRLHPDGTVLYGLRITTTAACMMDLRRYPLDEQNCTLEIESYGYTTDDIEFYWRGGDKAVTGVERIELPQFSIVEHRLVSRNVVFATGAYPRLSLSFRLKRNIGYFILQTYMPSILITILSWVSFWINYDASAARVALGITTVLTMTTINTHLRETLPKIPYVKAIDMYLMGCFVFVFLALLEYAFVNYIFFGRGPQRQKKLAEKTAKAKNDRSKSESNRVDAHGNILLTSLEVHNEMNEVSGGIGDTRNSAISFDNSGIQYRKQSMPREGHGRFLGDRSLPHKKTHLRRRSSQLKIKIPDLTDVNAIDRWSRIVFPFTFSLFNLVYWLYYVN
T1 sequence (P18507 40-475): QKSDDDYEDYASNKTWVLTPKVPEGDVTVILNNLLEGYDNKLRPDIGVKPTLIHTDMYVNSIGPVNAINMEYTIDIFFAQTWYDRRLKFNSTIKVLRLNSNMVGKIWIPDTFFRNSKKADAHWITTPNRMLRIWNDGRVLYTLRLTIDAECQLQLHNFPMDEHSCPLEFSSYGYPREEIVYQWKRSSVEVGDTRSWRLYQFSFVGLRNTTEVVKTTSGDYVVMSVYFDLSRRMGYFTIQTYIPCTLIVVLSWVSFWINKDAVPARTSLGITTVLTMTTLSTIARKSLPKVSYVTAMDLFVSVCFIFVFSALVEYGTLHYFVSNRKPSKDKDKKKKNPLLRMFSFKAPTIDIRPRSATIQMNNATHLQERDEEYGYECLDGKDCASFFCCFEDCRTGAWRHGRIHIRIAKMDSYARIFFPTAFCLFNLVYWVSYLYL
T2 sequence (P14867 28-456): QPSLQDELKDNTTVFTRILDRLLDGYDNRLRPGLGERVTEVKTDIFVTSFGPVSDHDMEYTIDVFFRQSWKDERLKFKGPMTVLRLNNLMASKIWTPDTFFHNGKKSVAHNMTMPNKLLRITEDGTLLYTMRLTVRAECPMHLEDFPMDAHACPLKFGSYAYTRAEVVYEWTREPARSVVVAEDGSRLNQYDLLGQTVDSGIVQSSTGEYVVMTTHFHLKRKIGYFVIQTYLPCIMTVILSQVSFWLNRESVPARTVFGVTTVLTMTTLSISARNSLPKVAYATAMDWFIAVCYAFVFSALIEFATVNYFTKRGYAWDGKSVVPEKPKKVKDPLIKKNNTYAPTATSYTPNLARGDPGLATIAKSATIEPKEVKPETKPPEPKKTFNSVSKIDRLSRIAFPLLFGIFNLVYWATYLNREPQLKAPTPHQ
T2 sequence (P47870 26-474 isoform P47870-1 limits assumed): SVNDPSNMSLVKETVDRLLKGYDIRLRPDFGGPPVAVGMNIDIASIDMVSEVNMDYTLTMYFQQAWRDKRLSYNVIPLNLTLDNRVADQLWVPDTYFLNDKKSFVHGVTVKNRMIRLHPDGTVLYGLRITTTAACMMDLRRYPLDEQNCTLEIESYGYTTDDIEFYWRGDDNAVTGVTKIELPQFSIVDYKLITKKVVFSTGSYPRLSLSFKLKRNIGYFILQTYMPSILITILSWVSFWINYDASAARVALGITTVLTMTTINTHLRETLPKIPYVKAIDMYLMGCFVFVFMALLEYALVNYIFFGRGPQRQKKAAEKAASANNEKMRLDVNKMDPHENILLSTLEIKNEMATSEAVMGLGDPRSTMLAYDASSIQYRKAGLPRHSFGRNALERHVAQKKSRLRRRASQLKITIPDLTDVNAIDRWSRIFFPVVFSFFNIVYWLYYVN
T2 sequence (P18507 40-475): as the sequence (P18507 40-475) above

Q: Which results are given for `C#C[C@@]1(O)CC[C@@]2(C)[C@@H](CC[C@@H]3[C@@H]2CC[C@]2(C)[C@@H](C(C)=NO)CC[C@@H]32)C1` [Comparator, 3β-ethynyl, 3α-hydroxy, 5α-pregnan-20-oxime]?
A: Mean % (SEM) Compound + GABA, change in chloride flow ([1]; 1 μM steroid, α5β3γ2L): +210 (23) %; Mean % (SEM) Compound + THDOC + GABA, change in chloride flow ([1]; 1 μM steroid, α5β3γ2L): +80 (8) %; Mean % (SEM) Compound + THDOC, change in chloride flow ([1]; 1 μM steroid, α5β3γ2L): +128 (22) %; Mean % (SEM) Compound alone, change in chloride flow ([1]; 1 μM steroid, α5β3γ2L): +50 (12) %; mode of action, Compound + GABA ([1]; 1 μM steroid, α5β3γ2L): agonist; mode of action, Compound + THDOC ([1]; 1 μM steroid, α5β3γ2L): agonist; mode of action, Compound + THDOC + GABA ([1]; 1 μM steroid, α5β3γ2L): agonist; mode of action, Compound alone ([1]; 1 μM steroid, α5β3γ2L): agonist; action on the GABA receptor subunit alpha 5 [1]: agonist

Q: What does the source list for `C#C[C@]1(O)CC[C@@]2(C)C(CCC3C2CC[C@@]2(C)C3CC[C@@H]2/C(C)=N/O)C1` (stereo partly drawn) [Compound, 3α-ethynyl, 3β-hydroxy, 5α-pregnan-20-oxime]?
A: Relative effect Mean (%) ([2]; 0.1 μM compound): −3.0%; Relative effect Median ([2]; 0.1 μM compound): −1.6; effect on 200 nM THDOC evoked current (direct activation by GAMS) ([2]; 200 nM THDOC, no GABA): antagonizing effect; Relative effect Mean (%) ([2]; 0.3 μM compound): −6.6%; Relative effect Median ([2]; 0.3 μM compound): −6.9; Relative effect Mean (%) ([2]; 1 μM compound): −15.2%; Relative effect Median ([2]; 1 μM compound): −11.0; Relative effect Mean (%) ([2]; 3 μM compound): −20.7%; Relative effect Median ([2]; 3 μM compound): −23.6; effect on 200 nM GAMS (THDOC) and 0.3 μM GABA evoked currents ([2]; 0.1-3 μM compound): clear concentration dependent antagonizing effect; action on α5β3γ2L receptor subtype ([2]; all tested situations with GAMS and GABA): antagonist; Compound + GABA, current response ([2]; α5β3γ2): −18.8 ± 2.2; Compound + GAMS + GABA, current response ([2]; α5β3γ2, GAMS = THDOC): −15.2 ± 2.8; Compound + GAMS, current response ([2]; α5β3γ2, GAMS = THDOC, no GABA): −29.7 ± 6.5; Compound alone, current response ([2]; α5β3γ2, no GABA, no GAMS): No effect; Mean % (SEM) Compound + GABA, change in chloride flow ([1]; 1 μM steroid, α5β3γ2L): −19 (2) %; Mean % (SEM) Compound + THDOC + GABA, change in chloride flow ([1]; 1 μM steroid, α5β3γ2L): −15 (3) %; Mean % (SEM) Compound + THDOC, change in chloride flow ([1]; 1 μM steroid, α5β3γ2L): −30 (6) %; Mean % (SEM) Compound alone, change in chloride flow ([1]; 1 μM steroid, α5β3γ2L): no effect; mode of action, Compound + GABA ([1]; 1 μM steroid, α5β3γ2L): antagonist; mode of action, Compound + THDOC ([1]; 1 μM steroid, α5β3γ2L): antagonist; mode of action, Compound + THDOC + GABA ([1]; 1 μM steroid, α5β3γ2L): antagonist; action on the GABA receptor subunit alpha 5 [1]: antagonist; direct activation of the GABAA receptor in absence of GABA ([3]; 1 μM compound): did not activate; increase of GABA mediated current response ([3]; 1 μM compound, α1β2γ2L): approximately 10%; effect on GABA's opening of the α1β2γ2L GABAA receptor ([3]; compound + GABA): slight agonistic effect; effect of compound alone on chloride flux ([3]; compound alone): no enhancing or antagonizing effect; Compound + GABA, current response ([3]; α1β2γ2L): +11 ± 4; antagonistic effect against the enhancing effect of THDOC ([3]; α1β2γ2L receptor): no antagonistic effect; Compound + GAMS + GABA, current response ([3]; α1β2γ2L, GAMS = THDOC): No effect; Compound alone, current response ([3]; α1β2γ2L, no GABA, no GAMS): No effect
